Laboratory results: patent US20130053430A1, “MODULATION OF CETP EXPRESSION” (Isis Pharmaceuticals, Inc., priority 2010, published 2013)
e = 2'-O-(2-methoxyethyl) (MOE); d = 2'-deoxy (DNA)

Assays:
SR-B1 = experiment: Liver SR-B1 mRNA expression (Example 9); assay type: in vivo, mice; conditions: s.c. 6 weeks; for Percent inhibition of liver mRNA expression, SR-B1: percentage increase or decrease compared to PBS control
Description: Another group received subcutaneous injections of control oligonucleotide ISIS 141923 at a dose of 50 mg/kg/week for 6 weeks. One group of mice received subcutaneous injections of PBS for 6 weeks. The PBS-injected group served as the control group to which treatment groups were compared.
Liver RNA was isolated for real-time PCR analysis of ABCA1, ApoAI, and SR-B1. ATP-binding cassette transporter ABCA1 (member 1 of human transporter sub-family ABCA), also known as the cholesterol efflux regulatory protein (CERP) is a protein which in humans is encoded by the ABCA1 gene (Luciani, M. F. et al., Genomics. 1994. 21: 150-9). This transporter is a major regulator of cellular cholesterol and phospholipid homeostasis. Apolipoprotein A-I is a protein that in humans is encoded by the APOA1 gene (Breslow, J. L. et al., Proc. Natl. Acad. Sci. USA 1982. 79: 6861-5). Apolipoprotein A-I is the major protein component of HDL in plasma. The protein promotes cholesterol efflux from tissues to the liver for excretion. Scavenger receptor class B, type I (SR-BI) is an integral membrane protein found in numerous cell types/tissues, including the liver and adrenal (Acton, S. L. et al., J. Biol. Chem. 1994. 269: 21003-21009). It is best known for its role in facilitating the uptake of cholesteryl esters from high-density lipoproteins in the liver. Therefore, all three genes have a role in HDL regulation.
The primer probe set RTS1204 (forward sequence […], designated herein as SEQ ID NO: 122, reverse sequence […], designated herein as SEQ ID NO: 123, probe sequence AGGCCCAGACCTGTAAAGGCGAAGX, with X a fluorophore, designated herein as SEQ ID NO: 124) was used to measure abca1 levels. The primer probe set RTS14737 (forward sequence […], designated herein as SEQ ID NO: 125, reverse sequence […], designated herein as SEQ ID NO: 126, probe sequence CTGCAGGAACGGCTGGGCCCX, with X a fluorophore, designated herein as SEQ ID NO: 127) was used to measure apoA1 levels. The primer probe set mSRB-1 (forward sequence […], designated herein as SEQ ID NO: 128, reverse sequence ATGCGACTTGTCAGGCTGG, designated herein as SEQ ID NO: 129, probe sequence CGTGGAGAACCGCAGCCTCCATTX, with X a fluorophore, designated herein as SEQ ID NO: 130) was used to measure sr-b1 levels. The results are presented in Table 44 as percentage increase or decrease in the respective expression levels compared to the PBS control. Both primer probe sets produced similar results. The RNA expression levels were normalized to murine Cyclophilin. Treatment with ISIS 349517 caused an increase in ApoA1 and SR-B1 levels.

[1] = mouse, in vivo, sc, 25 mg/kg
Source text: The saline-injected group served as the control group to which oligonucleotide-treated groups were compared. […] This group served a negative control for the effects of the antisense oligonucleotides against CETP. The groups are further described in Table 27, and are designated letters A-F, by which they will be referred from henceforth.

[2] = Liver function, plasma ALT and AST (Example 8); assay type: in vivo; conditions: huCETP transgenic mice, Western diet; 25 mg/kg s.c. twice per week for 2 weeks
Source text: (§1) The mice were divided into two groups of 4-6 mice each.

CETP activity = CETP activity assay kit (Example 8); assay type: in vivo, human; conditions: huCETP transgenic mice, Western diet; 25 mg/kg s.c. twice per week for 2 weeks; relative to PBS control
Description: as §1
CETP activity levels were measured using a CETP activity assay kit (Roar Biomedical Inc., New York, N.Y.). […] The results are expressed as percent inhibition of CETP activity, relative to the PBS control.

human CETP mRNA [3] = experiment: Dose-dependent antisense inhibition of human CETP in SW872 liposarcoma cells (Example 2); assay type: cell-based; conditions: Lipofectin, ~16 hours (Example 2)
Description: (§2) Cells were plated at a density of 50,000 cells per well in a 24-well plate and transfected using Lipofectin reagent with 50 nM, 150 nM, and 300 nM concentrations of each antisense oligonucleotide. After approximately 16 hours, RNA was isolated from the cells and CETP mRNA levels were measured by quantitative real-time PCR. CETP mRNA levels were normalized to total RNA content, as measured by the house-keeping gene, GAPDH mRNA levels. Results are presented in Table 4 as percent inhibition of CETP, relative to untreated control cells.

human CETP mRNA [4] = experiment: Dose-dependent antisense inhibition of human CETP in SW872 liposarcoma cells (Example 3); assay type: cell-based; conditions: Lipofectin, ~16 hours (Example 3)
Description: as §2, with “ISIS 17291 ([…], 6-8-6 MOE (SEQ ID NO: 115)), ISIS 17302 ([…], 6-8-6 MOE (SEQ ID NO: 116)), and ISIS 17305 ([…], 6-8-6 MOE (SEQ ID NO: 117), first disclosed in U.S. Ser. No. 11/031,827 (incorporated by reference herein), were also tested under the same conditions. Cells” for “Cells”, “Table 5” for “Table 4”

[5] = Plasma cholesterol and triglyceride levels (Example 8); assay type: in vivo; conditions: huCETP transgenic mice, Western diet
Description: as §1
Plasma cholesterol were extracted at week 6 by the method of Bligh and Dyer (Bligh, E. G. and Dyer, W. J. Can. J. Biochem. Physiol. 37: 911-917, 1959) and measured with an Olympus clinical analyzer (Hitachi Olympus AU400e, Melville, N.Y.). HDL and LDL cholesterol were individually measured by HPLC. Triglyceride levels were measured with the use of a commercially available triglyceride kit (DCL Triglyceride Reagent; Diagnostic Chemicals Ltd., Charlottetown, Canada). The results are presented in Table 41 and are expressed in mg/dL.

[6] = 25 mg/kg s.c. twice per week for 2 weeks

ISIS 141923: CCTTCCCTGAAGGTTCCTCC, 5-10-5 MOE gapmer, a control oligonucleotide which has no known murine target (sugars from the 5' end e5 d10 e5, backbone and methylation of C not given here) [reference compound]
Percent inhibition of liver mRNA expression, SR-B1 (SR-B1; Dose 50 mg/kg/wk): +37%

ISIS 349517: 5-10-5 MOE gapmer CAGCACTTTAATGCCAGTGG (sugars from the 5' end e5 d10 e5, backbone and methylation of C not given here)
Organ weights, Kidney [1]: 0.39
Organ weights, Liver [1]: 1.51
Organ weights, Spleen [1]: 0.09
Transaminase levels, ALT [2]: 26 IU/L
Transaminase levels, AST [2]: 38 IU/L
Percent inhibition of CETP activity (CETP activity): 73%
percent inhibition of CETP (human CETP mRNA [3]; 50 nM): 100%
percent inhibition of CETP (human CETP mRNA [3]; 150 nM): 98%
percent inhibition of CETP (human CETP mRNA [3]; 300 nM): 98%
percent inhibition of CETP (human CETP mRNA [4]; 50 nM): 76%
percent inhibition of CETP (human CETP mRNA [4]; 150 nM): 91%
percent inhibition of CETP (human CETP mRNA [4]; 300 nM): 93%
HDL % at week 0 [5, 6]: 39%
HDL cholesterol [5, 6]: 155 mg/dL
LDL Cholesterol [5, 6]: 48 mg/dL
Total cholesterol [5, 6]: 212 mg/dL
Triglycerides [5, 6]: 58 mg/dL
increase in HDL levels compared to the PBS control ([5]; 25 mg/kg s.c. twice per week, on week 3): 30%
SR-B1 levels (liver mRNA) (SR-B1; huCETP transgenic mice, Western diet): increase
Percent inhibition of liver mRNA expression, SR-B1 (SR-B1; Dose 1.5 mg/kg/wk): +33%
Percent inhibition of liver mRNA expression, SR-B1 (SR-B1; Dose 5 mg/kg/wk): +34%
Percent inhibition of liver mRNA expression, SR-B1 (SR-B1; Dose 15 mg/kg/wk): +50%
Percent inhibition of liver mRNA expression, SR-B1 (SR-B1; Dose 50 mg/kg/wk): +42%
